How the values were obtained:
[1] = target: T1, Solute carrier organic anion transporter family member 1B1 (Homo sapiens, UniProt Q9Y6L6); details: chinese hamster, cho, 10 µM
T1 sequence (Q9Y6L6 whole entry): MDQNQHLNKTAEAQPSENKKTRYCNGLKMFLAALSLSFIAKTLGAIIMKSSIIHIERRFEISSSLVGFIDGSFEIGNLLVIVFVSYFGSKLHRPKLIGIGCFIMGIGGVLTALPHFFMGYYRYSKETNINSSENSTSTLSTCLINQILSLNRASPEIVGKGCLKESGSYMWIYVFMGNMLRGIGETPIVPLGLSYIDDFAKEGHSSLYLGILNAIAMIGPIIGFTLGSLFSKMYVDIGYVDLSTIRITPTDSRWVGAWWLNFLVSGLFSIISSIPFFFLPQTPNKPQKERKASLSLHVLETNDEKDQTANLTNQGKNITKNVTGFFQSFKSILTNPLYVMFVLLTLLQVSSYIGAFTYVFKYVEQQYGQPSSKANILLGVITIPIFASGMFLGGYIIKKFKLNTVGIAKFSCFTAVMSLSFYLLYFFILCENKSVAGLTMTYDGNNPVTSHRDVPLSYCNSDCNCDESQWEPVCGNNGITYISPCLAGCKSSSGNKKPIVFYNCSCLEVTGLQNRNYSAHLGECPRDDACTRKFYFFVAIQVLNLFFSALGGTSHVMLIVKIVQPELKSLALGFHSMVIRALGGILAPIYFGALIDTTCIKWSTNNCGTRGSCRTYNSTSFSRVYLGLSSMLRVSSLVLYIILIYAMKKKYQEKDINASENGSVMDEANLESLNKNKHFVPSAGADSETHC

[2] = target: T2, Solute carrier organic anion transporter family member 1B3 (Homo sapiens, UniProt Q9NPD5); details: chinese hamster, cho, 10 µM
T2 sequence (Q9NPD5 whole entry): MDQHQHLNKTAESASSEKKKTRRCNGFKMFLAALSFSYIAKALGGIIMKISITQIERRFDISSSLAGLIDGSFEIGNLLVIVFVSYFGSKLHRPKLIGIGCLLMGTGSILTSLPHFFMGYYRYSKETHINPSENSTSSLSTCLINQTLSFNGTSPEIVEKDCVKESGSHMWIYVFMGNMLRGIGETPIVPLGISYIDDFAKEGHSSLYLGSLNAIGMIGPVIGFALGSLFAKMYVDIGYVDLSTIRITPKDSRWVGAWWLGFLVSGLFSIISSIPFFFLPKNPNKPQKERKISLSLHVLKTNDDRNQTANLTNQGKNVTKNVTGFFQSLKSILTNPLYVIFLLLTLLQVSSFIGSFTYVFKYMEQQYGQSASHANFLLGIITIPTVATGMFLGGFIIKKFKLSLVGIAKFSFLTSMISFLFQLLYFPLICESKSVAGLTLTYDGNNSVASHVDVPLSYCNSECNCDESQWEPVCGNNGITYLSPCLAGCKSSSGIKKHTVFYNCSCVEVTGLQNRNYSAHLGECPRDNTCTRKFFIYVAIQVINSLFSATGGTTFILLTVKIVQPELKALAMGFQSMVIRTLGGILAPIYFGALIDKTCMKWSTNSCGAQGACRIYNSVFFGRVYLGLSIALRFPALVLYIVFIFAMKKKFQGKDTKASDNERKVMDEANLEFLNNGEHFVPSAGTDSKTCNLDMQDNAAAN

Row | Structure (SMILES) | residual activity [1] [%] | residual activity [2] [%]
1 | Cn1c(=O)c2c(ncn2CCO)n(C)c1=O [ETOFYLLINE] | 64.41 | 86.25
2 | C=C[C@@](C)(O)CC[C@H]1C(=C)C[C@H](O)[C@H]2C(C)(C)CCC[C@]12C | 48.6 | 78.26
3 | C/C1=C\CC/C(C)=C/CC(C)(C)/C=C/C1 [ALPHA-HUMULONE] | 112.4 | 109.1
4 | CCOP(=S)(OCC)Oc1ccc2c(C)c(Cl)c(=O)oc2c1 [COUMAPHOS] | 99.64 | 124.8
5 | C[C@@H]1C[C@H]2[C@@H]3C[C@H](F)C4=CC(=O)C=C[C@]4(C)[C@@]3(F)[C@@H](O)C[C@]2(C)[C@@]1(O)C(=O)CO [FLUMETHASONE] | 84.89 | 135.8
6 | CCCC(C)C1(CC)C(=O)NC(=O)NC1=O (configuration not stated) [PENTOBARBITAL] | 94.35 | 94.07
7 | NCC(O)CC(=O)O (stereo not drawn) [GAMMA-AMINO-BETA-HYDROXYBUTYRIC ACID] | 120.5 | 106.5
8 | O=C(O)c1cc(/N=N/c2ccc(S(=O)(=O)Nc3ccccn3)cc2)ccc1O [SULFASALAZINE] | 126.2 | 72.91
9 | O=C(O[C@@H]1Cc2c(O)cc(O)cc2O[C@@H]1c1cc(O)c(O)c(O)c1-c1c([C@H]2Oc3cc(O)cc(O)c3C[C@H]2OC(=O)c2cc(O)c(O)c(O)c2)cc(O)c(O)c1O)c1cc(O)c(O)c(O)c1 [THEASINENSIN A] | 61.1 | 94.99
10 | COC(=O)C[C@H]1C(C)(C)C(=O)[C@@H]2CC3=C4CC(=O)O[C@@H](c5ccoc5)[C@]4(C)CC[C@@H]3[C@@]1(C)C2=O [MEXICANOLIDE] | 44.09 | 122.7
11 | CC(=O)c1ccc(O)c(CC=C(C)C)c1 [3-PRENYL-4-HYDROXYACETOPHENONE] | 93.69 | 99.32
12 | COc1c2ccoc2cc2oc(=O)ccc12 [BERGAPTEN] | 93.84 | 97.44
13 | CCOC(=O)c1c(C)cc(O)c(C)c1O [METHYLORSELLINIC ACID, ETHYL ESTER] | 76.13 | 105.6
14 | COc1cc(O)c(C(=O)/C=C/c2ccccc2)c(OC)c1 [FLAVOKAWAIN B] | 141.4 | 125.2
15 | N[C@@H]1C[C@H]1c1ccccc1.N[C@H]1C[C@@H]1c1ccccc1.O=S(=O)(O)O [TRANYLCYPROMINE SULFATE] | 73.89 | 84.19
16 | CCCC1O[C@@H]2C[C@H]3[C@@H]4CCC5=CC(=O)C=C[C@]5(C)[C@H]4[C@@H](O)C[C@]3(C)[C@]2(C(=O)CO)O1 (some centres not stated) [BUDESONIDE] | 43.76 | 73
17 | Nc1ccc(S(=O)(=O)NC(=O)c2ccccc2)cc1 [SULFABENZAMIDE] | 84.77 | 94.35
18 | CCOP(=S)(OCC)SCn1c(=O)oc2cc(Cl)ccc21 [PHOSALONE] | 116.2 | 124
19 | NS(=O)(=O)c1cc2c(cc1Cl)N=C(CSCc1ccccc1)NS2(=O)=O [BENZTHIAZIDE] | 74.12 | 56.86
20 | CCCCCCCCCCCC[C@@H](C(=O)O)[C@H](C)C(=O)O | 76.63 | 61.85
21 | CN1CC(=O)NC1=N [CREATININE] | 105.7 | 93.64
22 | CC1=CCCC2C1(C)CCC(C)C2(C)CC/C(C)=C/Cn1c[n+](C)c2c(N)ncnc21 (configuration not stated) [AGELASINE (stereochemistry of diterpene unknown)] | 56.98 | 93.91
23 | COC(=O)[C@H]1[C@H]2C[C@H]3c4[nH]c5cc(OC)ccc5c4CCN3C[C@H]2C[C@@H](OC(=O)c2cc(OC)c(OC)c(OC)c2)[C@@H]1OC [ISORESERPINE] | 38.5 | 42.22

Row | Structure (SMILES) | residual activity [1] [%] | residual activity [2] [%]
24 | O=C(CCCCC(=O)Nc1c(I)cc(I)c(C(=O)O)c1I)Nc1c(I)cc(I)c(C(=O)O)c1I [IODIPAMIDE] | 90.55 | 60.87
25 | COc1cc([C@@H]2c3cc4c(cc3[C@H](O)[C@H]3COC(=O)[C@H]23)OCO4)cc(OC)c1OC [PODOFILOX] | 63.87 | 95.19
26 | C[C@H]1CC[C@]2(NC1)O[C@H]1C[C@H]3[C@@H]4CC[C@H]5C[C@@H](O)CC[C@]5(C)[C@H]4CC[C@]3(C)[C@H]1[C@@H]2C.Cl | 108.8 | 99.59
27 | CC(=O)OCC(=O)[C@@]1(O)CC[C@H]2[C@@H]3CC[C@H]4CC(OC(C)=O)CC[C@]4(C)[C@H]3C(=O)C[C@@]21C (some centres not stated) | 99.36 | 97.61
28 | C=CCc1ccccc1OCC(O)CNC(C)C (configuration not stated) [ALPRENOLOL] | 89.01 | 120.6
29 | CN(C)[C@@H]1C(O)=C(C(N)=O)C(=O)[C@@]2(O)C(O)=C3C(=O)c4c(O)cccc4[C@@](C)(O)[C@H]3[C@H](O)[C@@H]12 [OXYTETRACYCLINE] | 61.86 | 95.2
30 | C[C@H](CCC(=O)O)[C@H]1CC[C@H]2[C@@H]3[C@@H](O)C[C@@H]4C[C@H](O)CC[C@]4(C)[C@H]3CC[C@]12C [URSODIOL] | 70.93 | 149.7
31 | C[C@]12CC[C@@H](OS(=O)(=O)[O-])C[C@@H]1CC[C@@H]1[C@@H]2CC[C@]2(C)C(=O)CC[C@@H]12.[Na+] | 27.84 | 40.78
32 | C[C@H](N)[C@H](O)c1ccc(O)c(O)c1 [LEVONORDEFRIN] | 58.62 | 80.26
33 | Nc1ccc(S(=O)(=O)Nc2ccccn2)cc1 [SULFAPYRIDINE] | 73.46 | 105.2
34 | C[C@]12CCC(=O)C=C1CC[C@@H]1[C@@H]2C(=O)C[C@@]2(C)[C@H]1CC[C@]2(O)C(=O)CO [CORTISONE] | 76.37 | 69.54
35 | Cc1c(C(N)=O)cc([N+](=O)[O-])cc1[N+](=O)[O-] [DINITOLMIDE] | 98.02 | 106.4
36 | CC(C)C1COc2cc3oc(=O)ccc3cc2O1 (configuration not stated) [DIHYDRO-OBLIQUIN] | 74.37 | 74.86
37 | [O-][n+]1ccccc1[S][Zn][S]c1cccc[n+]1[O-] [PYRITHIONE ZINC] | 92.52 | 94.54
38 | CCCCCCCCCCC[C@@H](C[C@@H]1OC(=O)[C@H]1CCCCCC)OC(=O)[C@H](CC(C)C)NC=O [ORLISTAT] | 85.27 | 84.62
39 | COc1ccc2cc1Oc1ccc(cc1)C[C@H]1c3c(cc4c(c3Oc3cc5c(cc3OC)CCN(C)[C@@H]5C2)OCO4)CCN1C [CEPHARANTHINE] | 91.94 | 125.1
40 | C=CCCCCCCCCCCCC(O)CC(O)COC(C)=O (configuration not stated) [AVOCATIN A] | 125.1 | 99.6
41 | NC(C(=O)O)C(O)C(=O)O (racemic) [d,l-threo-3-HYDROXYASPARTIC ACID] | 70.17 | 82.91
42 | CC1(C)NC(=O)N(c2ccc([N+](=O)[O-])c(C(F)(F)F)c2)C1=O [NILUTAMIDE] | 116.6 | 97.83
43 | OC(c1cc(C(F)(F)F)nc2c(C(F)(F)F)cccc12)C1CCCCN1 (configuration not stated) [MEFLOQUINE] | 161.6 | 112.7
44 | CC(=O)Oc1ccccc1C(=O)Oc1ccccc1C(=O)O [DIPLOSALSALATE] | 91.69 | 93.37
45 | O=C(O)c1cccnc1 [NIACIN] | 124.4 | 89.89
46 | CC1(C)O[C@@H]2[C@@H](CO[C@@]3(COS(N)(=O)=O)OC(C)(C)O[C@@H]23)O1 [TOPIRAMATE] | 93.31 | 106.5
